Test results reported in patent publication US20210395210A1, “INHIBITION OF BACTERIAL CHAPERONIN SYSTEMS” (THE TRUSTEES OF INDIANA UNIVERSITY, priority 2018, published 2021).
Where two headings read alike, the source gives them in different places.

Tests used:
[1] = tested on: Enterococcus faecium (ATCC 19434); experiment: Bacterial proliferation assay, E. faecium; format: cell-based
Excerpt: (§1) Bacterial Strains: Enterococcus faecium—(Orla-Jensen) Schleifer and Kilpper-Balz strain NCTC 7171 (ATCC 19434); Drug sensitive Staphylococcus aureus—Rosenbranch strain Seattle 1945 (ATCC 25923); Methicillin resistant S. aureus (MRSA)—Rosenbach strain HPV107 (ATCC BAA-44); Klebsiella Pneumonia—(Schroeter) Trevisan strain NCTC 9633 (ATCC 13883); Acinetobacter baumannii—Bouvet and Grimont strain 2208 (ATCC 19606); Pseudomonas aeruginosa—(Schroeter) Migula strain NCTC 10332 (ATCC 10145); Enterobacter cloacae—E. cloacae, subsp. cloacae (Jordan) Hormaeche and Edwards strain CDC 442-68 (ATCC 13047).
(§2) Growth Media: All bacteria were grown in Brain Heart Infusion (BHI) broth/agar (Becton, Dickinson and Company). All liquid cultures were grown in BHI media supplemented with 25 mg/L Ca^2+ and 12.5 mg/L Mg^2+ to mimic free physiological concentrations of these cations. A 10 mg/mL Ca^2+ stock solution was prepared by dissolving 3.68 g of CaCl2.2H2O in 100 mL of deionized water, and a 10 mg/mL Mg^2+ stock solution was prepared by dissolving 8.36 g of MgCl2.6H2O in 100 mL deionized water. Both stock solutions were filter-sterilized using 0.2 μm pore size cellulose-acetate filters. 2.5 mL of the sterile 10 mg/mL Ca^2+ stock and 1.25 mL of the sterile 10 mg/mL Mg^2+ stock solutions were added per 1 L of autoclaved BHI medium to obtain 25 mg/L Ca^2+ and 12.5 mg/L Mg^2+ ions, respectively.
(§3) General Assay Protocol: Stock bacterial cultures were streaked onto BHI agar plates and grown overnight at 37° C. Fresh aliquots of broth were inoculated with single bacterial colonies and the cultures were grown overnight at 37° C. with shaking (240 rpm) in cation adjusted BHI media. The following morning, the overnight cultures were sub-cultured (1:5 dilution) into fresh aliquots of cation adjusted BHI media and grown at 37° C. for 1-2 hours with shaking. After 2 h, cultures were diluted into fresh media to achieve final OD600 readings of 0.017. Aliquots of these diluted cultures (30 μL) were added to clear, flat-bottom, 384-well polystyrene plates that were stamped with 0.5 μL of test compounds in 20 μL media. […] Plates were sealed with “Breathe Easy” oxygen permeable membranes (Diversified Biotech) and left to incubate at 37° C. without shaking (stagnant assay). OD600 nm readings were taken at either 6-8 h (S. aureus, MRSA, K. pneumonia, E. cloacae, and P. aeruginosa) or 24 h (E. faecium and A. baumannii). A second set of baseline control plates were prepared analogously, but without any bacteria added, to correct for possible compound absorbance and/or precipitation. Plates were then read at 600 nm using a Molecular Devices SpectraMax Plus384 microplate reader. […] Results presented represent the averages of EC50 values obtained from at quadriplicate (duplicate of duplicate) replicates.

human HSP60/10 = target: T1, human HSP60/10 (Homo sapiens, UniProt P10809); experiment: HSP60/10-mediated dMDH refolding assay; format: biochemical
T1 construct: octa-Histidine tag (TEV-cleavable) (N, cleaved yes); made in house; host or cells: HSP60 in E. coli Rosetta 2 (DE3); HSP10 in Rosetta 2 (DE3) pLysS
Method: Reagent preparation: For these assays, four primary reagent stocks were prepared: 1) GroEUES-dMDH or HSP60/10-dMDH binary complex stock; 2) ATP initiation stock; 3) EDTA quench stock; 4) MDH enzymatic assay stock. Denatured MDH (dMDH) was prepared by 2-fold dilution of MDH (5 mg/ml, soluble pig heart MDH from Roche, product #10127248001) with denaturant buffer (7 M guanidine-HCl, 200 mM Tris, pH 7.4, and 50 mM DTT). MDH was completely denatured by incubating at room temperature for 45 min. The binary complex solutions were prepared by slowly adding the dMDH stock to a stirring stock with GroEL (or HSP60) in folding buffer (50 mM Tris-HCl, pH 7.4, 50 mM KCl, 10 mM MgCl2, and 1 mM DTT), followed by addition of GroES (or HSP10). The binary complex stocks were prepared immediately prior to dispensing into the assay plates and had final protein concentrations of 83.3 nM GroEL (Mr 800 kDa) or HSP60 (Mr 400 kDa), 100 nM GroES or HSP10 (Mr 70 kDa), and 20 nM dMDH in folding buffer. For the ATP initiation stock, ATP solid was diluted into folding buffer to a final concentration of 2.5 mM. Quench solution contained 600 mM EDTA (pH 8.0). The MDH enzymatic assay stock consisted of 20 mM sodium mesoxalate and 2.4 mM NADH in reaction buffer (50 mM Tris-HCl, pH 7.4, 50 mM KCl, and 1 mM DTT).
Assay Protocol: First, 30 μL aliquots of the GroEL/ES-dMDH or HSP60/10-dMDH binary complex stocks were dispensed into clear, 384-well polystyrene plates. […] The chaperonin-mediated refolding cycles were initiated by addition of 20 μL of ATP stock (reagent concentrations during refolding cycle: 50 nM GroEL or HSP60, 60 nM GroES or HSP10, 12 nM dMDH, 1 mM ATP, and compounds of 100 μM to 46 nM, 3-fold dilution series). The refolding reactions were incubated at 37° C. […] Next, the assay was quenched by addition of 10 μL of the EDTA to final concentration of 100 mM. […] A340 nm measurements were recorded at 0.5 minutes (start point) and at successive time points until the amount of NADH consumed reached ˜90% (end point, generally between 20-35 minutes). The differences between the start and end point A340 values were used to calculate the % inhibition of the GroEL/ES or HSP60/10 machinery by the compounds. […] Results presented represent the averages of IC50 values obtained from at least quadriplicate (duplicate of duplicate) replicates.

[2] = tested on: Methicillin resistant S. aureus (MRSA) (ATCC BAA-44); experiment: Bacterial proliferation assay, MRSA; format: cell-based, Staphylococcus aureus; details: Staphylococcus aureus
Excerpt: as §1, §2, §3

[3] = tested on: Acinetobacter baumannii (ATCC 19606); experiment: Bacterial proliferation assay, A. baumannii; format: cell-based
Excerpt: as §1, §2, §3

[4] = ATCC19434, 24 h, read-out: Bacterial Proliferation EC50 E. faecium
[5] = ATCC19434, read-out: log(EC50) Bacterial Proliferation Assay C. faecium (converted)
[6] = human HSP60/10-dMDH refolding assay, read-out: HSP60/10-dMDH Refolding IC50
[7] = log(IC50) ± standard deviation, human HSP60/10-dMDH refolding assay, read-out: HSP60/10-dMDH Refolding Assay log(IC50) (converted)
[8] = read-out: Bacterial Proliferation EC50 S. aureus Resistant
[9] = read-out: log(EC50) Bacterial Proliferation Assay S. aureus Resistant (converted)
[10] = ATCC19606, 24 h, read-out: Bacterial Proliferation EC50 A. baumannii
[11] = ATCC19606, read-out: log(EC50) Bacterial Proliferation Assay A. baumannii (converted)
[12] = ATCC19434, OD600 at 24 h, read-out: Bacterial Proliferation EC50 E. faecium
[13] = ATCC19434, log of EC50 (μM scale), with standard deviation, read-out: log(EC50) Bacterial Proliferation Assay C. faecium (converted)
[14] = MRSA, OD600 at 6-8 h, read-out: Bacterial Proliferation EC50 S. aureus Resistant
[15] = MRSA, log of EC50 (μM scale), with standard deviation, read-out: log(EC50) Bacterial Proliferation Assay S. aureus Resistant (converted)
[16] = ATCC19606, OD600 at 24 h, read-out: Bacterial Proliferation EC50 A. baumannii
[17] = ATCC19606, log of EC50 (μM scale), with standard deviation, read-out: log(EC50) Bacterial Proliferation Assay A. baumannii (converted)

T1 sequence (P10809 27-573): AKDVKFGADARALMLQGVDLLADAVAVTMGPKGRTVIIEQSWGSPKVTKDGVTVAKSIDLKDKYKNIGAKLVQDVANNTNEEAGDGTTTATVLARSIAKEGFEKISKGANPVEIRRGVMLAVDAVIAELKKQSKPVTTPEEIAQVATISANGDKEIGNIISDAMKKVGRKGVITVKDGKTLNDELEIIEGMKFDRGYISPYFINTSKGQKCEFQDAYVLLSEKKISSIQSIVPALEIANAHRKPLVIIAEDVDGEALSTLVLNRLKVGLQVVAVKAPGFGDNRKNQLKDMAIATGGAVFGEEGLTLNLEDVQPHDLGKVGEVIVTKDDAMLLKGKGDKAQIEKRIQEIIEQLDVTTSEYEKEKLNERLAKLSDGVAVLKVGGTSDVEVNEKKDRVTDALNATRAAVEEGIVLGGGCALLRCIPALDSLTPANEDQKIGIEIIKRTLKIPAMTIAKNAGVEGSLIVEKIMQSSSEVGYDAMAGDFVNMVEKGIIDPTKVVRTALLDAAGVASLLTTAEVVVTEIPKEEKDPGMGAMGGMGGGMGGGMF

SMILES | EC50 [1, 4] [µM] | EC50 [1, 5] [µM] | IC50 (human HSP60/10; [6]) [µM] | IC50 (human HSP60/10; [7]) [µM] | EC50 [2, 8] [µM] | EC50 [2, 9] [µM] | EC50 [3, 10] [µM] | EC50 [3, 11] [µM] | EC50 [1, 12] [µM] | EC50 [1, 13] [µM] | EC50 [2, 14] [µM] | EC50 [2, 15] [µM] | EC50 [3, 16] [µM] | EC50 [3, 17] [µM] | IC50 (human HSP60/10) [µM] | HSP60/10-dMDH Refolding Assay log(IC50) (human HSP60/10; log(IC50) ± standard deviation, human HSP60/10-dMDH refolding assay)
O=C(Nc1cccc(Cl)c1)c1cc(Br)ccc1O [Compound 11, 5-Bromo-N-(3-chlorophenyl)-2-hydroxybenzamide] | > 100 | > 100 | > 100 | > 100 | 0.53 | 0.537 | > 100 | > 100 | – | – | – | – | – | – | – | –
O=C(Nc1cccc(Cl)c1)c1ccccc1O [Compound 12, N-(3-Chlorophenyl)-2-hydroxybenzamide] | – | – | > 100 | > 100 | – | – | – | – | > 100 | > 100 | 4.2 | 4.17 | > 100 | > 100 | – | –
O=C(Nc1ccccc1)c1cc(Br)cc(Br)c1O [Compound 13, 3,5-Dibromo-2-hydroxy-N-phenylbenzamide] | > 100 | > 100 | 63 | 63.1 | 2 | 2 | > 100 | > 100 | – | – | – | – | – | – | – | –
O=C(Nc1ccccc1)c1cccc(Br)c1O [Compound 14, 3-Bromo-2-hydroxy-N-phenylbenzamide] | – | – | > 100 | > 100 | – | – | – | – | > 100 | > 100 | 10 | 10 ± 1.7 | > 100 | > 100 | – | –
O=C(Nc1ccccc1)c1cc(Br)ccc1O [Compound 15, 5-Bromo-2-hydroxy-N-phenylbenzamide] | – | – | > 100 | > 100 | – | – | – | – | > 100 | > 100 | 4.1 | 4.07 | > 100 | > 100 | – | –
O=C(Nc1ccccc1)c1ccccc1O [Compound 16, 2-Hydroxy-N-phenylbenzamide] | > 100 | > 100 | – | – | 51 | 51.3 | > 100 | > 100 | – | – | – | – | – | – | > 100 | >2
O=C(Nc1ccc(Sc2nc3ccccc3s2)c(Cl)c1)c1cc(Br)cc(Br)c1 [Compound 17, N-(4-(Benzo[d]thiazol-2-ylthio)-3-chlorophenyl)-3,5-dibromobenzamide] | – | – | > 100 | > 100 | – | – | – | – | > 100 | > 100 | – | > 100 | > 100 | > 100 | – | –
O=C(Nc1ccc(Sc2nc3ccccc3s2)c(Cl)c1)c1cccc(Br)c1 [Compound 18, N-(4-(Benzo[d]thiazol-2-ylthio)-3-chlorophenyl)-3-bromobenzamide] | – | – | > 100 | > 100 | – | – | – | – | > 100 | > 100 | – | > 100 | > 100 | > 100 | – | –
O=C(Nc1ccc(Sc2nc3ccccc3s2)c(Cl)c1)c1ccccc1 [Compound 19, N-(4-(Benzo[d]thiazol-2-ylthio)-3-chlorophenyl)benzamide] | – | – | > 100 | > 100 | – | – | – | – | > 100 | > 100 | > 100 | > 100 | > 100 | > 100 | – | –
O=C(Nc1ccc(Sc2nc3ccccc3s2)cc1)c1cc(Br)cc(Br)c1 [Compound 20, N-(4-(Benzo[d]thiazol-2-ylthio)phenyl)-3,5-dibromobenzamide] | – | – | > 100 | > 100 | – | – | – | – | > 100 | > 100 | – | > 100 | > 100 | > 100 | – | –
O=C(Nc1ccc(Sc2nc3ccccc3s2)cc1)c1cccc(Br)c1 [Compound 21, N-(4-(Benzo[d]thiazol-2-ylthio)phenyl)-3-bromobenzamide] | – | – | > 100 | > 100 | – | – | – | – | > 100 | > 100 | – | > 100 | > 100 | > 100 | – | –
O=C(Nc1ccc(Sc2nc3ccccc3s2)cc1)c1ccccc1 [Compound 22, N-(4-(Benzo[d]thiazol-2-ylthio)phenyl)benzamide] | – | – | > 100 | > 100 | – | – | – | – | > 100 | > 100 | – | > 100 | > 100 | > 100 | – | –
O=C(Nc1cccc(Cl)c1)c1cc(Br)cc(Br)c1 [Compound 23, 3,5-Dibromo-N-(3-chlorophenyl)benzamide] | – | – | > 100 | > 100 | – | – | – | – | > 100 | > 100 | 12 | 11.7 | > 100 | > 100 | – | –
O=C(Nc1cccc(Cl)c1)c1cccc(Br)c1 [Compound 24, 3-Bromo-N-(3-chlorophenyl)benzamide] | – | – | > 100 | > 100 | – | – | – | – | > 100 | > 100 | 68 | 67.6 | > 100 | > 100 | – | –
